Measured values as given in US8946264B2, “Pyridine derivative” (Daiichi Sankyo Company, Limited, priority 2009, dated 2015).

Legend:
KK mice = test: Hypoglycemic effect (glucose lowering rate) in diabetic KK mice; assay type: in vivo; settings: male KK mice, diet admixture containing 0.03% of the compound, three days, plasma glucose on the 3rd day vs control group; for inhibition in vivo at 0.03 % in diet: Mus musculus, po, 72 h
Description: Six-week-old male KK mice were purchased from CLEA Japan, Inc. and then were fed until 15 to 20 weeks old to develop diabetes. The mice were individually fed during the adaptation period and the test period, and water and feed (FR2, Funabashi Farm) were freely ingested.
At the start of the experiment, after body weight measurement, blood was collected from the tail vein of the mice into a heparin-coated glass tube and centrifuged, and then plasma was separated. The glucose level in the plasma was measured by Glucoloader GXT (A&T Corp.), and individuals having a plasma glucose level of about 350 mg/dl or more were selected. The mice were grouped, each group having 3 to 4 mice, to make the average body weight and the average plasma glucose level similar. Each compound was administered to a compound group with a diet admixture containing 0.03% of the compound. A separate group in which the mice were fed only with diet was a control group.
The experiment period (drug administration period) was three days. The grouping day was the 0th day. On the 3rd day, the body weight was measured and blood was collected from the tail vein to measure the plasma glucose level.
The glucose lowering rate was determined by the following formula. Glucose lowering rate=[(Control group plasma glucose level−Compound-administered group plasma glucose level)/Control group plasma glucose level]×100

[1] = target: T1, GAL4-PPARγ chimeric receptor (Homo sapiens, UniProt P37231); test: PPARγ activation effect/modulator activity, GAL4-PPARγ luciferase reporter assay in COS-7 cells; assay type: cell-based; settings: for Emax: COS-7, maximum luciferase activity, positive control rosiglitazone = 100%, DMSO control = 0%
T1 construct: expressed in transfected cells; host or cells: COS-7 (monkey kidney-derived cell line)
Description: A test was carried out according to the reporter assay method with reference to a report by Kliewer et al. (Journal of Biological Chemistry, 1995, Vol. 270 (22), p. 12953-12956) as a method for measuring the ability of a compound to activate PPARγ (hereinafter PPARγ activation effect/modulator activity). Commercially available reagents and kits were used according to the attached instructions. The details will be shown below. The ligand-binding domain of human PPARγ (corresponding to about 300 amino acids at the carboxy end) was bound to the DNA-binding domain of the yeast transcription factor GAL4 (corresponding to 147 amino acids at the amino end) with reference to the report by Kliewer et al. to prepare a gene expressing a GAL4-PPARγ receptor. The plasmid pM-PPARγ obtained by the above operation includes the nucleotide sequence represented by SEQ ID NO: 4 of the Sequence Listing and encodes an amino acid sequence represented by SEQ ID NO: 5 of the Sequence Listing containing amino acids 1 to 147 of the yeast transcription factor GAL4 at the amino end and containing amino acids 175 to 475 of human PPARγ and a stop codon at the carboxy end. The plasmid is a gene that can express a GAL4-PPARγ chimeric receptor in mammalian cells. The previously acquired plasmid pM-PPARγ and the plasmid pFR-Luc purchased from Stratagene Cloning Systems, Inc. were dissolved in deionised water at a concentration of 1 mg/mL each. […] COS-7 cells were transfected with 4.8 micrograms per flask of the plasmid pM-PPARγ and 19.2 μg per flask of the plasmid pFR-Luc using Lipofectamine 2000 transfection reagent (manufactured by Invitrogen Corporation), and the cells were cultured overnight. […] The test compound was dissolved in dimethyl sulfoxide at a concentration of 4 mM. The solution was serially diluted 3.3-fold with dimethyl sulfoxide to prepare solutions of the compound at concentrations up to 400 nM. Dimethyl sulfoxide was prepared for the control group. Rosiglitazone dissolved in dimethyl sulfoxide at a concentration of 4 mM was prepared for the positive control group. They were diluted 20-fold with the medium, and 5 μL of the dilution was added to the wells in which the cells were grown. […] After the addition, the cells were cultured overnight. On the following day, the medium was removed, and Luc Lite (manufactured by PerkinElmer Inc.) was prepared according to the attached document and added at 50 microliters per well. […] The amount of luminescence in each well was measured as luciferase activity using Analyst (Molecular Devices) for 0.5 second. A dose-dependent curve was drawn.

T1 sequence (P37231 with tags, fused parts or gaps): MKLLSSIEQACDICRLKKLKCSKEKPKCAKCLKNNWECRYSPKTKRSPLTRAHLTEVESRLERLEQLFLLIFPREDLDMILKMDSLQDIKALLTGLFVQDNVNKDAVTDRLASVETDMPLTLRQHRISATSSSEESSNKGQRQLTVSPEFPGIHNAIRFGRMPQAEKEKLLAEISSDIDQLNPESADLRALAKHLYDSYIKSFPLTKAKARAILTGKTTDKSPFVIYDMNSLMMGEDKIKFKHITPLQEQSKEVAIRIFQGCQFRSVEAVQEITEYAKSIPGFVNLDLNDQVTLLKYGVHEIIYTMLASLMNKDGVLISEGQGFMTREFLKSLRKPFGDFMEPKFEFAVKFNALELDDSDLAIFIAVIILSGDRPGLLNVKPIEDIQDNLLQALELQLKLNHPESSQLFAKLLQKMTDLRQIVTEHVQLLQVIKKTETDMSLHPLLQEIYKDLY

Row | SMILES | inhibition in vivo at 0.03 % in diet (KK mice) | EC50 [1] | Emax [1] | Glucose lowering rate (%) (KK mice)
1 | Cn1c(COc2cccc(C(=O)O)c2)nc2ccc(Oc3cccnc3)cc21 [Compound A, reference compound] | 20% |  |  | 
2 | CCc1cccnc1Oc1ccc2nc(COc3cccc(C(=O)O)c3)n(C)c2c1 [Example 2, 3-({6-[(3-Ethylpyridin-2-yl)oxy]-1-methyl-1H-benzimidazol-2-yl}methoxy)benzoic acid] | 31% | 180 nM | 73% | 
3 | Cc1ccc(Oc2ccc3nc(COc4cccc(C(=O)O)c4)n(C)c3c2)nc1C [Example 4, 3-({6-[(5,6-Dimethylpyridin-2-yl)oxy]-1-methyl-1H-benzimidazol-2-yl}methoxy)benzoic acid] |  |  |  | 28%
4 | Cn1c(COc2cccc(C(=O)O)c2)nc2ccc(Oc3ncc(Cl)cc3F)cc21 [Example 5, 3-({6-[(5-Chloro-3-fluoropyridin-2-yl)oxy]-1-methyl-1H-benzimidazol-2-yl}methoxy)benzoic acid] | 34% | 24 nM | 79% | 
5 | Cc1cc(F)cnc1Oc1ccc2nc(COc3cccc(C(=O)O)c3)n(C)c2c1 [Example 8, 3-({6-[(5-Fluoro-3-methylpyridin-2-yl)oxy]-1-methyl-1H-benzimidazol-2-yl}methoxy)benzoic acid] |  |  |  | 33%
6 | Cc1cnc(Oc2ccc3nc(COc4cccc(C(=O)O)c4)n(C)c3c2)c(F)c1 [Example 9, 3-({6-[(3-Fluoro-5-methylpyridin-2-yl)oxy]-1-methyl-1H-benzimidazol-2-yl}methoxy)benzoic acid] |  |  |  | 41%
7 | Cc1cnc(Oc2ccc3nc(COc4cccc(C(=O)O)c4)n(C)c3c2)c(C)c1 [Example 10, 3-({6-[(3,5-Dimethylpyridin-2-yl)oxy]-1-methyl-1H-benzimidazol-2-yl}methoxy)benzoic acid] |  |  |  | 37%
8 | Cc1cc(C)c(Oc2ccc3nc(COc4cccc(C(=O)O)c4)n(C)c3c2)nc1C [Example 15, 3-({1-Methyl-6-[(3,5,6-trimethylpyridin-2-yl)oxy]-1H-benzimidazol-2-yl}methoxy)benzoic acid] |  |  |  | 30%
9 | COc1cc(Oc2ccc3nc(COc4cccc(C(=O)O)c4)n(C)c3c2)ccn1 [Example 16, 3-({6-[(2-Methoxypyridin-4-yl)oxy]-1-methyl-1H-benzimidazol-2-yl}methoxy)benzoic acid] | 17% |  |  | 
10 | COc1cc(Oc2ccc3nc(COc4cccc(C(=O)O)c4)n(C)c3c2)cc(C)n1 [Example 17, 3-({6-[(2-Methoxy-6-methylpyridin-4-yl)oxy]-1-methyl-1H-benzimidazol-2-yl}methoxy)benzoic acid] | 36% |  |  | 
